Experimental data: article PMC8308585, “Design and Synthesis of Novel Thiazolo[5,4-d]pyrimidine Derivatives with High Affinity for Both the Adenosine A1 and A2A Receptors, and Efficacy in Animal Models of Depression” (Pharmaceuticals, 2021)

Tests used:
[1] = system: mice; assay: Tail suspension test; type: in vivo; details: mouse TST, 15 mg kg^−1 s.c., single dose, mean ± SEM of 10 mice; vehicle 99.0 ± 6.8
Method: (§1) To execute the tests, mice were divided into groups, each of which consisted of 10 animals. The tests were performed after a single p.o. administration of compound 18 at different dosages (10 mg Kg^−1 and 30 mg Kg^−1). Amitriptyline (15 mg Kg^−1) was used as the reference drug. Compounds were acutely administrated 26 min before the beginning of the experiment. In the FST (Table 4), the duration of immobility was recorded during the last 4 min of the 6 min test.
A decrease in the duration of immobility is indicative of an antidepressant-like effect. […] Accordingly, a similar activity was shown in the tail suspension test (Table 5) where the immobility time was measured in the first 2 min, when animals react to the inescapable stress, and in the last 4 min of the test, when the behavioral despair is established. Immobility was defined as the absence of any limb or body movements, except those caused by respiration. A reduction in the duration of the immobility time is indicative of an antidepressant-like effect.
Male CD-1 albino mice (22–25 g; Envigo, Varese, Italy) were housed in CeSAL (Centro Stabulazione Animali da Laboratorio, University of Florence, Florence, Italy) and used at least one week after their arrival. Animals were housed in 26 cm × 41 cm cages (12 mice each) and fed with a standard laboratory diet and tap water ad libitum. They were kept at 23 ± 1 °C with a 12 h light/dark cycle, light at 7 a.m. […]
A piece of tape was adhered to the upper middle of the tail of each animal, creating a flap with the overlap of tape. […] The duration of the test was 6 min and the immobility time was measured in the first 2 min, when animals react to the inescapable stress, and in the last 4 min of the test, when the behavioral despair is established. […]
Behavioral tests were performed by visual observation by researchers blinded to the treatments. Results were expressed as means ± SEM, variance was analyzed by ANOVA. […] Data were analyzed using the “Origin 8.1” software.

[2] = system: mice; assay: Sucrose preference test, LPS-induced anhedonia; type: in vivo, mouse; details: LPS 1.25 mg kg^−1 i.p. mice, 15 mg kg^−1 s.c. same protocol
Method: Anhedonia, or the inability to experience pleasure, is a common symptom of depression. The mood regulatory role of 18 was studied against anhedonia evaluated in the sucrose preference test in animals treated with lipopolysaccharide (LPS), a model of neuroinflammation-induced depressive-like syndrome. Compound 18 (10 mg kg^−1 and 30 mg kg^−1) was daily p.o administered for five consecutive days. Twenty-four hours after the last 18 treatment, LPS 1.25 mg kg^−1 was intraperitoneally injected. Immediately after LPS injection, mice were placed in cages equipped with two bottles: a bottle of 2% sucrose solution and a bottle of water (unsweetened tap water). The consumption of the 2% sucrose solution was evaluated 6 h and 24 h after LPS injection. Amitriptyline (15 mg kg^−1) was used as the reference drug administered following the same protocol.
(§2) Male CD-1 albino mice (22–25 g; Envigo, Varese, Italy) were housed in CeSAL (Centro Stabulazione Animali da Laboratorio, University of Florence, Florence, Italy) and used at least one week after their arrival. Animals were housed in 26 cm × 41 cm cages (12 mice each) and fed with a standard laboratory diet and tap water ad libitum. They were kept at 23 ± 1 °C with a 12 h light/dark cycle, light at 7 a.m. Compound 18 was administered per o.s. whereas amitriptyline was by a s.c. route following the most widely used approach reported in the literature.
Lipopolysaccharide (LPS) from Escherichia coli was purchased from Sigma-Aldrich, (Milan, Italy) freshly dissolved in sterile saline, and injected intraperitoneally (i.p.) at the dose of 1.25 mg kg^−1 [49] after five consecutive days of treatment with compound 18, 1 h after the last administration of the compound. Behavioral tests were performed before 6 h and 24 h after LPS administration.
Mice were placed in cages equipped with a couple of bottles, one containing 2% sucrose solution, the second with water (unsweetened tap water). The consumption of the 2% sucrose solution was evaluated 6 h and 24 h after the beginning of the experiment. The preference index was calculated according to the following formula: preference index = volume consumed sucrose solution/(volume consumed sucrose solution + volume consumed water).
(§3) Behavioral tests were performed by visual observation by researchers blinded to the treatments. Results were expressed as means ± SEM, variance was analyzed by ANOVA. A Bonferroni’s significant difference procedure was used as post-hoc comparison. p values of less than 0.05 and 0.01 were considered significant. Data were analyzed using the “Origin 8.1” software.

[3] = system: mice; assay: Forced swimming test; type: in vivo, mouse; details: mouse FST, 15 mg kg^−1 s.c., single dose 26 min before test, last 4 min of 6 min, mean ± SEM of 10 mice; vehicle 193.7 ± 8.9
Method: as §1, §2
Mice were individually placed into glass cylinders (height: 25 cm, diameter: 10 cm) containing 12 cm of water maintained at 22–23 °C for 6 min. Immobility was considered the animal floated in the water, in an upright position, and made only small movements to keep its head above water. The immobility time was recorded during the last 4-min of the 6-min test. A decrease in the duration of immobility is indicative of an antidepressant-like effect.
as §3

[4] = biological target: T1, hA2B AR (Homo sapiens, UniProt P29275); parameters: method as in PMID 30638876; details: inhibition of NECA-stimulated adenylyl cyclase activity, CHO cells; ref [34]; cited from earlier work
T1 construct: expressed in transfected cells; host or cells: CHO cells
T1 sequence (P29275 1-332): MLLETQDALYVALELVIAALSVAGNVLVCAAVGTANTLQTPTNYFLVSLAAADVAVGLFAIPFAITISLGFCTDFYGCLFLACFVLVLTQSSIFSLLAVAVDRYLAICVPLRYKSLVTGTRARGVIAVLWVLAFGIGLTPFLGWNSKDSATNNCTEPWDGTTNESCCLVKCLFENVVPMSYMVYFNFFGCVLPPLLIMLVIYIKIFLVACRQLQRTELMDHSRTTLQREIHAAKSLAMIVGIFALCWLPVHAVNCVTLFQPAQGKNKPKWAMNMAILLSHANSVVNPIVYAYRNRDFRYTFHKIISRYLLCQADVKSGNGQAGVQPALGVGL

Row | SMILES | Immobility Time [1] [s] | Sucrose Preference (%), 6 h ([2]; 6 h after LPS, vehicle + LPS 42.3 ± 3.1) [%] | Sucrose Preference (%), 24 h ([2]; 24 h after LPS, vehicle + LPS 38.0 ± 5.6) [%] | Immobility Time [3] [s] | IC50 [4] [µM]
1 | CN(C)CCC=C1c2ccccc2CCc2ccccc21 [amitriptyline, reference compound] | 61.6 ± 8.4 | 69.1 ± 4.8 | 70.3 ± 6.4 | 149.4 ± 4.6 | –
2 | Nc1nc(-c2ccccc2)nc2sc(-c3ccccc3)nc12 [compound 20] | – | – | – | – | > 30
